# Laboratory results published in US20160101148A1, “TREATMENT AND PREVENTION OF BACTERIAL SKIN INFECTIONS USING ORITAVANCIN” (priority 2013, published 2016).
# Legend:
# [1] = system: ABSSSI suspected or proven to be due to a gram-positive pathogen, including MRSA; assay: SOLO I Phase 3 trial, efficacy: single dose IV oritavancin versus IV vancomycin for 7 to 10 days; type: in vivo, human; settings: for Lesion Size Reduction ≧20% From Baseline / Primary efficacy endpoint response rate (cessation of spread, absence of fever, no rescue antibiotics): ECE 48 to 72 hours; for Investigator-Assessed Clinical Cure / Sustained Clinical Cure: PTE 7 to 14 days after EOT
# Procedure: The primary efficacy endpoint comprised: 1) cessation of spreading or reduction in the size of the baseline lesion, 2) absence of fever, and 3) no rescue antibiotic, at 48 to 72 hours, for the modified intent to treat population.
# The study design was consistent with current guidelines from FDA (U.S. Food and Drug Administration. Guidance for Industry Acute Bacterial Skin and Skin Structure Infections: Developing Drugs for Treatment (DRAFT GUIDANCE). Available via Internet at the URL containing: fda.gov/downloads/Drugs/GuidanceComplianceRegulatoryInformation/Guidances/ucm071185.p df) and EMA (European Medicines Agency Committee for Medicinal Products for Human Use. Addendum to the note for guidance on evaluation of medicinal products indicated for treatment of bacterial infections (CHMP/EWP/558/95 REV 2) to address indication-specific clinical data (draft). 2012. Available via Internet at the URL containing: ema.europa.eu/docs/en_GB/document_library/Scientific_guideline/2012/07/WC500129443.pdf) and Foundation for National Institutes of Health guidance was considered for analyses (Talbot G H etl. Clin Infect Dis. 2012. 55(8):1114-1121). The protocol was approved by institutional review boards/ethics committees and all patients provided written informed consent. The study was conducted from January 2011 through October 2012 at 46 study centers in Mexico, Spain, Germany, Romania, Russia, Ukraine, Israel, India, and the United States. […] Aztreonam and metronidazole were permitted for gram-negative and anaerobic cover, respectively.
# Clinical evaluations were performed at the following time points: Early Clinical Evaluation (ECE) at 48 to 72 hours after the initiation of the study drug infusion, End of Therapy (EOT) at Day 7 to Day 10 or the day the patient stopped study drug or changed to non-study drug therapy for primary ABSSSI, Day 10 Evaluation defined as 10 days after the initiation of the study drug infusion, Post Therapy Evaluation (PTE) at 7 to 14 days after the EOT visit, and Safety Follow-up at 60 days (+7 days) after the initiation of the study drug infusion. Safety data was reviewed by a data monitoring committee.
# Eligible patients were to be at least 18 years of age with diagnosis of ABSSSI that was suspected or proven to be due to a gram-positive pathogen and which required at least 7 days of IV therapy. The diagnosis of ABSSSI was defined as wound infections (either traumatic or surgical in origin), cellulitis/erysipelas or major cutaneous abscess with surrounding erythema, edema, and/or induration of at least 75 cm^2. The onset of wound infections or cellulitis/erysipelas must have occurred within 7 days prior to randomization. Patients also had to present with signs and symptoms of systemic inflammation. Patients were not eligible to participate if they received systemic or topical antibacterial therapy with gram-positive activity within the preceding 14 days.
# The primary efficacy endpoint was a composite outcome of 1) cessation of spreading or reduction in the size of the baseline lesion, 2) absence of fever, and 3) no rescue antibiotic medication at the ECE visit, for the mITT population.
# The secondary efficacy outcomes were as follows: 1) Lesion area decrease by ≧20% from Baseline at ECE, 2) Investigator-Assessed Clinical Response at PTE, 3) Sustained Clinical Response at PTE.
# The analyses were performed for patients who had lesion area assessments at baseline and ECE using the mITT and CE populations.
# If a patient had clinical failure assessed beyond the PTE visit window, the patient was considered as a clinical failure. If a patient had clinical success assessed beyond the PTE visit window, a) and if the patient had clinical failure before the PTE visit, the patient was considered a clinical failure at PTE or b) if the patient had clinical success also before the PTE visit, the patient was considered a clinical success at PTE.
# [2] = system: ABSSSI caused by susceptible gram-positive bacteria, including MRSA; assay: SOLO I and SOLO II combined, efficacy; type: in vivo, human; settings: SOLO I and SOLO II combined; for FDA primary endpoint: Cessation of spread, absence of fever, no rescue antibiotics / ≧20% reduction of lesion area / FDA primary endpoint: Cessation of spread, absence of fever, no rescue antibiotics, number of patients / ≧20% reduction of lesion area, number of patients: ECE; for EMA primary endpoint: Investigator-assessed clinical cure / EMA primary endpoint: Investigator-assessed clinical cure, number of patients: PTE
# Description: Complete results were obtained from a phase 3 clinical trial program of oritavancin (SOLO), which investigated the drug for the treatment of acute bacterial skin and skin structure infections (ABSSSI) caused by susceptible gram-positive bacteria, including methicillin-resistant Staphylococcus aureus (MRSA). SOLO I and SOLO II clinical trials were identical multicenter, double-blind, randomized clinical trials.
# In microbiologically confirmed MRSA patients, efficacy was similar in both treatment groups; however, a higher proportion of MRSA-infected patients in the oritavancin group achieved the endpoint of greater than or equal to 20% reduction of lesion area at ECE (p value=0.032). Under the Special Protocol Assessment (SPA) agreed with the FDA, the protocols pre-specified that MRSA patients from the SOLO studies would be pooled for the evaluation of efficacy.
# The combined SOLO studies represented 1,987 patients in an intent-to-treat population for evaluation of oritavancin in the treatment of ABSSSI in controlled clinical trials and assessed one of the largest subsets of patients with documented MRSA infection (405 patients).
# [3] = confirmed MRSA, MicroITT, oritavancin n = 204, vancomycin n = 201
# [4] = mITT, oritavancin n = 978, vancomycin n = 981
smiles,measurement,setting,value
"CN[C@H](CC(C)C)C(=O)N[C@H]1C(=O)N[C@@H](CC(N)=O)C(=O)N[C@H]2C(=O)N[C@H]3C(=O)N[C@H](C(=O)N[C@H](C(=O)O)c4cc(O)cc(O)c4-c4cc3ccc4O)[C@H](O)c3ccc(c(Cl)c3)Oc3cc2cc(c3O[C@@H]2O[C@H](CO)[C@@H](O)[C@H](O)[C@H]2O[C@H]2C[C@](C)(N)[C@H](O)[C@H](C)O2)Oc2ccc(cc2Cl)[C@H]1O [Vancomycin, vancomycin]",Lesion Size Reduction ≧20% From Baseline,[1]; CE,88.7%
same,"Primary efficacy endpoint response rate (cessation of spread, absence of fever, no rescue antibiotics)",[1]; CE,86.1%
same,Investigator-Assessed Clinical Cure,[1]; CE,93.2%
same,Lesion Size Reduction ≧20% From Baseline,[1]; MRSA MicroE,89.0%
same,"Primary efficacy endpoint response rate (cessation of spread, absence of fever, no rescue antibiotics)",[1]; MRSA MicroE,86.6%
same,Investigator-Assessed Clinical Cure,[1]; MRSA MicroE,97.6%
same,Lesion Size Reduction ≧20% From Baseline,[1]; MRSA MicroITT,84.0%
same,"Primary efficacy endpoint response rate (cessation of spread, absence of fever, no rescue antibiotics)",[1]; MRSA MicroITT,80.0%
same,Lesion Size Reduction ≧20% From Baseline,"[1]; MRSA MicroITT, listed as vancomycin",84.0%
same,Investigator-Assessed Clinical Cure,[1]; MRSA MicroITT,83.0%
same,Sustained Clinical Cure,[1]; MRSA MicroITT,69.0%
same,Lesion Size Reduction ≧20% From Baseline,[1]; mITT,82.9%
same,"Primary efficacy endpoint response rate (cessation of spread, absence of fever, no rescue antibiotics)",[1]; mITT,78.9%
same,Lesion Size Reduction ≧20% From Baseline,"[1]; mITT, listed as vancomycin",82.9%
same,"Primary efficacy endpoint response rate (cessation of spread, absence of fever, no rescue antibiotics)","[1]; mITT, listed as vancomycin",78.9%
same,Investigator-Assessed Clinical Cure,[1]; mITT,80.0%
same,Sustained Clinical Cure,[1]; mITT,69.7%
same,Investigator-Assessed Clinical Cure,"[1]; mITT, listed as vancomycin",80.0%
same,Sustained Clinical Cure,"[1]; mITT, listed as vancomycin",69.7%
same,"FDA primary endpoint: Cessation of spread, absence of fever, no rescue antibiotics","[2]; confirmed MRSA, MicroITT",80.6%
same,≧20% reduction of lesion area,"[2]; confirmed MRSA, MicroITT",87.1%
same,"FDA primary endpoint: Cessation of spread, absence of fever, no rescue antibiotics, number of patients",[2]; [3],162
same,"≧20% reduction of lesion area, number of patients",[2]; [3],175
same,EMA primary endpoint: Investigator-assessed clinical cure,"[2]; confirmed MRSA, MicroITT",84.1%
same,"EMA primary endpoint: Investigator-assessed clinical cure, number of patients",[2]; [3],169
same,"FDA primary endpoint: Cessation of spread, absence of fever, no rescue antibiotics",[2]; mITT,80.9%
same,≧20% reduction of lesion area,[2]; mITT,84.1%
same,"FDA primary endpoint: Cessation of spread, absence of fever, no rescue antibiotics, number of patients",[2]; [4],794
same,"≧20% reduction of lesion area, number of patients",[2]; [4],825
same,EMA primary endpoint: Investigator-assessed clinical cure,[2]; mITT,80.2%
same,"EMA primary endpoint: Investigator-assessed clinical cure, number of patients",[2]; [4],787
